Assay results as given in patent US20050020519A1, “Modulation of insulin-regulated aminopeptidase (irap)/angiotensin iv (at4) receptor activity” (priority 2001, published 2005).
Where no end group is shown, it is not given here.

Assays:
IRAP = biological target: T1, IRAP (Homo sapiens, UniProt Q9UIQ6); assay: Degradation of peptides by IRAP expressed in HEK 293T cells, HPLC with mass spectrometric detection; assay type: biochemical
T1 construct: expressed in transfected cells; host or cells: HEK 293T cells (solubilised membrane protein)
Experimental: At each time point (0, 0.5, 1, 2, 4 & 6 hr), an aliquot containing 5 μg peptide was removed, and the reaction stopped by addition of 4 volumes methanol/1% trifluoroacetic acid (TPA). Samples were dried on a centrifugal vacuum evaporator prior to HPLC analysis with on-line mass spectrometric detector. […] Fragments were identified following mass spectral analysis, using Agilent ChemStation deconvolution software.

rats [1] = assay: Morris water maze, scopolamine-induced amnesia; assay type: in vivo, rat; details: 1 nmole icv after 70 nmole scopolamine
Excerpt: The maze consisted of a circular tank, 1.6 m in diameter by 0.6 m in height, containing water to a depth of 30 cm. The room contained visual cues placed 40 cm from the edge of the tank. The rats were subjected to two days of familiarisation to the task, during which the escape pedestal is visible to the animals. During the acquisition phase, for the following 5 days, the water in the tank was rendered opaque, and the escape platform was submerged under the surface of the water. The animals had to rely on the visual cues around the room to find the submerged escape pedestal. The latency of the animal in finding the pedestal during the acquisition phase was taken as a measure of the spatial memory performance of the animal.
Rats were surgically implanted with cannulae in their lateral ventricles and allowed two to three days of recovery. During the familiarisation trials on days 1 and 2, the animals were placed in the water facing the wall of the tank from different starting positions equidistant from the escape pedestal. When the animals located and mounted the pedestal, they were allowed 30 seconds on the pedestal before the commencement of the next trial. Four consecutive trials were carried out on each animal on each day, and the mean latency period before the animal reached the pedestal was plotted. […]

AT4 receptor = details: Moeller et al, 1996; Zhang et al, 1999; cited from earlier work
rats [2] = assay: Passive avoidance, scopolamine-induced amnesia; assay type: in vivo, rat
Experimental: Passive avoidance trials were then used to test the effect of modulation of AT4 receptor/IRAP activity on aversive conditioning behaviour in amnesic animals. The passive avoidance task involves aversive conditioning behaviour to measure facilitation of memory retention and retrieval. The testing was carried out in an apparatus that consisted of a light and a dark compartment separated by a guillotine door. The floor of the dark compartment contained an electrified grid.
Rats were surgically implanted with chronic cannulae in the lateral ventricle. On conditioning day, the animals were habituated in the dark compartment for 5 min with the guillotine door closed. The animals were then placed in their home cages for 5 min before being placed in the light compartment with the guillotine door opened. The latency to enter the dark compartment with all four feet was documented. When the rats entered the dark compartment within 20 s of being placed in the light compartment, they were randomly divided into four treatment groups. The treatment groups were: • (1) saline followed by saline; • (2) saline followed by 1.0 nmole […] (SEQ ID NO:2); • (3) 70 nmole scopolamine followed by saline; and • (4) 70 nmole scopolamine followed by 1.0 nmole […] (SEQ ID NO:2).
All of these were administered into the cerebral ventricles 30 min and 5 min before the acquisition trial. […]

mice = assay: Y maze spatial memory, normal mice; assay type: in vivo, mouse
Experimental: The Y maze consists of three identical alleys (30 cm in length, 10 cm in width and 17 cm in height) with the three arms separated by 120° angles. To minimize stress, the maze is located in a sound-attenuated room under dim illumination, with the floor of the maze covered with sawdust. After each trial, the sawdust is mixed to eliminate olfactory cues. For spatial orientation, visual cues are placed on the walls of the testing room.
The test consisted of two trials, separated by a time interval known as the intertrial interval. During the acquisition trial, the animals were placed at the distal end of one arm, their heads pointing away from the centre of the maze. The mice were allowed to visit only two accessible arms of the maze for 3 minutes. At the end of the acquisition trial, the mice were replaced in their cages for the intertrial interval. During the retention trial, the animals had access to all three arms for 5 minutes. The number and duration of time spent in the novel arm were documented.
A shorter intertrial interval (2 hours) separating the acquisition phase from the retention phase enables amnesiant effects to be detected. Control mice still remember the location of the novel arm and will preferentially spend more time (45-50% of time) in that arm.
Mice were surgically implanted with an infusion cannula in the dorsal third ventricle. […]

T1 sequence (Q9UIQ6 whole entry): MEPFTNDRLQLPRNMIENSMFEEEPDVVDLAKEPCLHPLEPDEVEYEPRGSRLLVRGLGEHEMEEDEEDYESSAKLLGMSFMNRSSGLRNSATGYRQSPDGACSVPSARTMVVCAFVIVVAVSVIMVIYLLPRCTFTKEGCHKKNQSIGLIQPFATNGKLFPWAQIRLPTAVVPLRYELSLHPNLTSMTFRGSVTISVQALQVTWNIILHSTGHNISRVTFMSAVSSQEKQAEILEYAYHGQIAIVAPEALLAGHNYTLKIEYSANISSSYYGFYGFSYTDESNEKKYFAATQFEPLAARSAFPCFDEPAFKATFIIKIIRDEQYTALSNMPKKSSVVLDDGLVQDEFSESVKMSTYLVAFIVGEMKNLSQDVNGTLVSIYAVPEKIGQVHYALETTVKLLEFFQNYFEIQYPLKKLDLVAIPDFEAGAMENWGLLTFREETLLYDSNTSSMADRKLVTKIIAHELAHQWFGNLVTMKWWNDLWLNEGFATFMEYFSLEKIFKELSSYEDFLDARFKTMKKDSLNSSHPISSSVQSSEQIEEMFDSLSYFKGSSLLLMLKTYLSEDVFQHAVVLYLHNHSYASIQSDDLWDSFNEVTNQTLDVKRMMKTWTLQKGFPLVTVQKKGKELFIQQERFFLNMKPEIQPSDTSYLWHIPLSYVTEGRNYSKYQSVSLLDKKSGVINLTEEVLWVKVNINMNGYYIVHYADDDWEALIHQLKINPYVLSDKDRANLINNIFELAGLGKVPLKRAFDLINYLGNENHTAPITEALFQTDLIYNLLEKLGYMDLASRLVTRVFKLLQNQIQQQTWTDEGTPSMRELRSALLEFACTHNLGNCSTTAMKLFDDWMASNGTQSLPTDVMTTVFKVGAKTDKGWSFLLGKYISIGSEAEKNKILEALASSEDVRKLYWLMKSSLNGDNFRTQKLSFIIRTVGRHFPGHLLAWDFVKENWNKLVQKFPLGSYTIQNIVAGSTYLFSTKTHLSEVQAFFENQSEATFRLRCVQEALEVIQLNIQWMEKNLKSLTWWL

## LVVYPWTQRF
IRAP; 37° C., hIRAP transfected HEK 293T membranes, (=UT) equals untransfected control cells
  Substrate disappearance over 4 hr: 14% (=UT)
IRAP; incubation at 37° C. with solubilized membrane protein from hIRAP transfected HEK 293T cells
  Products Identified: VVYPWTQRF
Rats [1]
  latency in locating the submerged pedestal: reversed the scopolamine-induced latency
AT4 receptor
  affinity for AT4 receptor: nanomolar affinity
Rats [2]; 1.0 nmole icv after 70 nmole scopolamine
  latency to re-enter the dark compartment: not significantly different from controls
Rats [2]; 1.0 nmole icv alone (after saline)
  latency to re-enter the dark compartment: comparable to the scopolamine-treated group
mice; after 6 days of infusion at 0.3 pmol/h
  time in novel arm versus control mice: indistinguishable from each other
mice; after three days of infusion at 0.3 pmol/h, 6 h intertrial interval, control approximately 33%
  time spent in the novel arm: 50-60 % of time
